Assay [1] deals with BRAF mutant and CRAF kinases. The note with it: cited from earlier work.
Assay [2] has as its system NRAS mutated melanoma. To be noted: cited from earlier work.
The subject of assay [3] is NRAS mutated melanoma. The assay is classed as in vivo, human. The note with it: single agent, 10 patients, doses 400-1200 qd and 200-800 bid, data cut May 31, 2021. The text has this: Clinical data further supports the pre-clinical findings.
Assay [4] has as its system solid tumors (salivary gland tumor and NSCLC) harboring pan-RAS codon Q61 or G13R mutations. The assay is classed as in vivo, human. To be noted: LXH254 single agent.
The subject of assay [5] is cell lines that contain a variety of mutations that activate MAPK signaling. The note with it: cited from earlier work.
The next assay has as its system KRAS-mutant models. The note with it: several KRAS-mutant models, well-tolerated doses; cited from earlier work.
In assay [6] the test system is pan-RAS codon Q61/G13R mutant models (NSCLC, melanoma, PDAC, rhabdomyosarcomas). To be noted: independently of the mutated RAS gene and tissue origin.
Assay [7] concerns advanced melanoma with NRAS mutation. To be noted: trametinib monotherapy, 7 patients with NRAS mutation; cited from earlier work.
Assay [8] deals with KRAS G12, G13C and G13D mutant NSCLC. The note with it: single agent, second line; cited from earlier work.
Assay [9] deals with unresectable stage III/IV metastatic melanoma resistant to anti-PD (L)-1 therapy. The note with it: monotherapy, 162 patients, cited from earlier work.

As to `Cc1ccc2c(Nc3cccc(Cl)c3F)nccc2c1NC(=O)c1csc2c(N)ncnc12` [Belvarafenib, 4-amino-N-(1-((3-chloro-2-fluorophenyl)amino)-6-methylisoquinolin-5-yl) thieno[3,2-d]pyrimidine-7-carboxamide], the selectivity entry in assay [1] was “high selectivity”.

As to `Cn1cnc2c(F)c(Nc3ccc(Br)cc3F)c(C(=O)NOCCO)cc21` [binimetinib], the ORR in the assay on NRAS mutated melanoma [2] (402 patients, untreated (~79%) and previously treated with immunotherapy (~21%)) is reported as 15%. Moreover, in the assay on NRAS mutated melanoma [2] (402 patients), the mOS is recorded as 11 months and the mPFS is recorded as 2.8 months. The anti-tumor activity entry in the assay with NRAS mutated melanoma [2] (single agent MEK inhibitor, NEMO study) is given as “limited anti-tumor activity”.

As for `Cc1ccc(NC(=O)c2ccnc(C(F)(F)F)c2)cc1-c1cc(OCCO)nc(N2CCOCC2)c1` [naporafenib, N-(3-(2-(2-hydroxyethoxy)-6-morpholino-pyridin-4-yl)-4-methylphenyl)-2-(trifluoromethyl) isonicotinamide], in the assay with NRAS mutated melanoma [3], the “SDs (stable disease)” value is given as 4 and the responses entry is reported as “no responses”. Moreover, the “response to single agent therapy” value in assay [4] is on record as “exceptional responders”. Besides, the anti-proliferative activity entry in [5] is listed as “demonstrated anti-proliferative activity”. Further, the “tumor response in vivo” value with KRAS-mutant models is on record as “tumor regression”. For the same compound, the “activity in non-clinical models” value in assay [6] is listed as “consistent activity”.

Take `CC(=O)Nc1cccc(-n2c(=O)n(C3CC3)c(=O)c3c(Nc4ccc(I)cc4F)n(C)c(=O)c(C)c32)c1` [trametinib, N-(3-{3-cyclopropyl-5-[(2-fluoro-4-iodophenyl)amino]-6,8-dimethyl-2,4,7-trioxo-3,4,6,7-tetrahydropyrido[4,3-d]pyrimidin-1 (2H)-yl}phenyl) acetamide]: in assay [7], the responses result is given as “no responses”. Further, the “superiority against standard of care docetaxel” value in [8] is given as “failed to demonstrate superiority”.

As to Ipilimumab: anti-CTLA-4 therapy, the “objective response rate (ORR)” value in assay [9] (irrespective of mutation status) is 13%. In assay [9], the “median overall survival (mOS)” value is on record as 8.8 months and the “median progression free survival (PFS)” value is 2.6 months.

(Values after patent publication US20250179584A1, “PRECISION THERAPY FOR THE TREATMENT OF CANCER” (Novartis AG, priority 2022, published 2025).)
